How the values were obtained:
[1] = TSC concentrations from 1 μmole/liter to around 200 μmole/liter; cited from earlier work
[2] = Oxygen transport across the skin, transcutaneous oxygen monitor (TCOM); assay type: in vivo; conditions: normal rat switched to 100% oxygen at time zero, intravenous injection in the femoral vein, versus saline control
Experimental: Diffusion enhancing compounds such as kosmotropes increase the oxygen transport in vivo. In the subject experiment, the oxygen diffusing through the skin of a normal, non-diseased rat was measured using a transcutaneous oxygen monitor (TCOM). In the subject study, the rats breathed air and then were switched to breathing 100% oxygen at a time equal to zero. Also at time zero, the rats were injected (intravenously in the femoral vein) with either saline (control), trehalose, glycine betaine, or TSC.

[3] = rats breathing 100% oxygen; cited from earlier work
[4] = Glucose diffusion through aqueous kosmotrope solutions, microinterferometric method; assay type: physicochemical; conditions: about 10 μM kosmotrope in water, 25° C., glucose 0.9 molar
Experimental: The diffusion of glucose through aqueous solutions of the above-mentioned kosmotropes was measured using a microinterferometric method, Secor, R. M., AIChE Journal, 11: 452-456, 1965.
In this method, a wedge is formed by two microscope slides that have a partial coating of a metal such as aluminum on the inner sides of the wedge. The wedge is placed on a microscope stage and illuminated from below using some source of monochromatic light, such as a helium-neon laser. As the light passes through the wedge, the partial coating of aluminum allows some light to be transmitted, while some is reflected. This creates constructive and destructive lines known as interference fringes. The interference fringes can then be magnified by a microscope and recorded with a camera.
Molecules of glucose will diffuse along a concentration gradient of glucose. Since the refractive index of the solution is related to the concentration of the glucose, the fringes at a given point will change with time. […]
Solutions of three kosmotropes (proline, betaine and trehalose) in water were made, so that the solutions contained about 10 μM of each of the kosmotropes. Using the trehalose solution as an example, the diffusivity of glucose through each of these solutions was then measured in the following way.
The trehalose solution was divided into two parts. […] A camera recorded the resulting fringe pattern. […]

| Structure (SMILES) | increase in the diffusivity of glucose through water [1] | oxygen transport across the skin (TCOM readings) [2] | brain oxygen level [3] | diffusivity of glucose through the solution compared with plain water [4] |
| --- | --- | --- | --- | --- |
| CC(/C=C/C=C(\C)C(=O)[O-])=C\C=C\C=C(C)\C=C\C=C(/C)C(=O)[O-].[Na+].[Na+] [TSC, trans sodium crocetinate] | around 30% | increased oxygen transport across the skin | further increased the brain oxygen level |  |
| C[N+](C)(C)CC(=O)O [glycine betaine, Glycine betaine] |  | increased oxygen transport across the skin |  |  |
| OC[C@H]1O[C@H](O[C@H]2O[C@H](CO)[C@@H](O)[C@H](O)[C@H]2O)[C@H](O)[C@@H](O)[C@@H]1O [trehalose, Trehalose] |  | increased oxygen transport across the skin |  | greater than the value of glucose through plain water |
